Data: ChEMBL document CHEMBL1143273, “Structure-based hybridization of the bioactive natural products rhizonin A and ternatin leading to a selective fat-accumulation inhibitor against 3T3-L1 adipocytes” (Bioorg Med Chem Lett, 2009)
Non-standard residues stand in square brackets, D forms with d. Residues, ends and D or L forms follow the SMILES beside them. d(aIle) = CC[C@H](C)[C@@H](N)C(=O)O; NMeF = CN[C@@H](Cc1ccccc1)C(=O)O; dNMeF = CN[C@H](Cc1ccccc1)C(=O)O; NMeA = CN[C@@H](C)C(=O)O

What was measured:
3T3-L1 [1] = test: Inhibition of fat-accumulation in mouse 3T3L1 cells; assay type: functional, cell-based
3T3-L1 [2] = test: Cytotoxicity against mouse 3T3L1 cells at 62 uM; assay type: cell-based; conditions: 3t3-l1, 62 µM
3T3-L1 [3] = test: Cytotoxicity against mouse 3T3L1 cells; assay type: cell-based
3T3-L1 [4] = test: Selectivity index, ratio of IC50 for mouse 3T3L1 cells to IC50 for fat-accumulation in mouse 3T3L1 cells; assay type: functional

Row | SMILES | IC50 (3T3-L1 [1]) [µM] | Activity (3T3-L1 [2]) [%] | IC50 (3T3-L1 [3]) [µM] | Ratio IC50 (3T3-L1 [4])
1 | CC[C@H](C)[C@H]1NC(=O)[C@@H](Cc2ccoc2)N(C)C(=O)[C@H](C)N(C)C(=O)[C@H](CC(C)C)NC(=O)[C@H](Cc2ccoc2)N(C)C(=O)[C@H](C(C)C)NC(=O)[C@@H](C(C)C)NC1=O [RHIZONIN A] | 55 | 70 | 62 | 1
2 | CC[C@H](C)[C@H]1NC(=O)[C@@H](Cc2ccccc2)N(C)C(=O)[C@H](C)N(C)C(=O)[C@H](CC(C)C)NC(=O)[C@H](Cc2ccccc2)N(C)C(=O)[C@H](C(C)C)NC(=O)[C@@H](C(C)C)NC1=O (cyclo(L[NMeA][dNMeF][d(aIle)][dV]V[NMeF])) | 42 | – | > 240 | >12.3
